Experiment [1] addresses T1, FMS/CSF1R (Homo sapiens, UniProt P07333).
T1 construct: made in house
In words: Kinase competition binding assay, FMS/CSF1R. The following applies: Table 1 kinase panel. As for the experimental part: (§1) Cannabis flavonoids and their analogs were subjected to kinase inhibition assay. The compounds were first screened at a single concentration of 10 μM in the primary assay. […]. To determine the kd or IC50 values, competition binding assays were established, authenticated and executed as described previously. Fabian et al., “A Small Molecule-Kinase Interaction Map For Clinical Kinase Inhibitors.”, Nat Biotechnol, 23(3):329-36, Epub (2005). See also, Karaman et al., “A Quantitative Analysis Of Kinase Inhibitor Selectivity”, Nat. Biotechnol. […] For most assays, kinases were fused to T7 phage strains (Fabian, supra) and for the other assays, kinases were produced in HEK-293 cells after which they were tagged with DNA for quantitative PCR detection. In general, full-length constructs were used for small, single domain kinases, and catalytic domain constructs for large multi-domain kinases. The binding assays utilized streptavidin-coated magnetic beads treated with biotinylated small molecule ligands for 30 minutes at room temperature which generated affinity resins for the kinase assays. The liganded beads were blocked with excess biotin and washed with blocking buffer (SeaBlock (Pierce), 1% BSA, 0.05% Tween 20, 1 mM DTT) to remove unbound ligand and to reduce non-specific phage binding. […] Test compounds were prepared as 40× stocks in 100% DMSO and diluted directly into the assay (Final DMSO concentration=2.5%). All reactions were performed in polypropylene 384-well plates in a final volume of 0.04 ml. […] The beads were then re-suspended in elution buffer (1×PBS, 0.05% Tween 20, 0.5 μM non-biotinylated affinity ligand) and incubated at room temperature with shaking for 30 minutes. The kinase concentration in the eluates was measured by quantitative PCR. An illustration of the kinase interaction process is presented below. Kd/IC50 values were determined using a standard dose response curve using the hill equation. Curves were fitted using a non-linear least square fit with the Levenberg-Marquardt algorithm.
(§2) The compound(s) were screened at 10 μM and results for primary screen binding interactions are reported as ‘% Ctrl’, where lower numbers indicate stronger hits in the matrix.

Experiment [2] addresses T2, KIT(L576P) (Homo sapiens, UniProt P10721, L576P).
T2 construct: made in house
Nature of the experiment: Kinase competition binding assay, KIT(L576P). Particulars: Table 1 kinase panel. The method, then: as §1, §2

Experiment [3] addresses T3, DRAK2 (Homo sapiens, UniProt O94768).
T3 construct: made in house
T3 sequence (O94768 1-372): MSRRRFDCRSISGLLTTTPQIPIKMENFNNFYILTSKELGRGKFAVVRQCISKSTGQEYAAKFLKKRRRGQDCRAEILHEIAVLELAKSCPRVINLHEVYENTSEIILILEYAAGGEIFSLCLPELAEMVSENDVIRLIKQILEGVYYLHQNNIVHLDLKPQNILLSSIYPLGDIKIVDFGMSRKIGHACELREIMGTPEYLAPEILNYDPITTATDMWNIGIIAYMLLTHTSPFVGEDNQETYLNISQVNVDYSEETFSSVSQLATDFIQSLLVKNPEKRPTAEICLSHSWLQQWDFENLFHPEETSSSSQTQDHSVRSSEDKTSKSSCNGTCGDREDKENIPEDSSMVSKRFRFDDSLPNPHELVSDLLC
In words: Kinase competition binding assay, DRAK2. The following applies: Table 1 kinase panel. As for the experimental part:
as §1, §2

The target of experiment [4] is T4, FLT3(D835V) (Homo sapiens, UniProt P36888, D835V).
T4 construct: made in house
T4 sequence (P36888 27-993 D835V): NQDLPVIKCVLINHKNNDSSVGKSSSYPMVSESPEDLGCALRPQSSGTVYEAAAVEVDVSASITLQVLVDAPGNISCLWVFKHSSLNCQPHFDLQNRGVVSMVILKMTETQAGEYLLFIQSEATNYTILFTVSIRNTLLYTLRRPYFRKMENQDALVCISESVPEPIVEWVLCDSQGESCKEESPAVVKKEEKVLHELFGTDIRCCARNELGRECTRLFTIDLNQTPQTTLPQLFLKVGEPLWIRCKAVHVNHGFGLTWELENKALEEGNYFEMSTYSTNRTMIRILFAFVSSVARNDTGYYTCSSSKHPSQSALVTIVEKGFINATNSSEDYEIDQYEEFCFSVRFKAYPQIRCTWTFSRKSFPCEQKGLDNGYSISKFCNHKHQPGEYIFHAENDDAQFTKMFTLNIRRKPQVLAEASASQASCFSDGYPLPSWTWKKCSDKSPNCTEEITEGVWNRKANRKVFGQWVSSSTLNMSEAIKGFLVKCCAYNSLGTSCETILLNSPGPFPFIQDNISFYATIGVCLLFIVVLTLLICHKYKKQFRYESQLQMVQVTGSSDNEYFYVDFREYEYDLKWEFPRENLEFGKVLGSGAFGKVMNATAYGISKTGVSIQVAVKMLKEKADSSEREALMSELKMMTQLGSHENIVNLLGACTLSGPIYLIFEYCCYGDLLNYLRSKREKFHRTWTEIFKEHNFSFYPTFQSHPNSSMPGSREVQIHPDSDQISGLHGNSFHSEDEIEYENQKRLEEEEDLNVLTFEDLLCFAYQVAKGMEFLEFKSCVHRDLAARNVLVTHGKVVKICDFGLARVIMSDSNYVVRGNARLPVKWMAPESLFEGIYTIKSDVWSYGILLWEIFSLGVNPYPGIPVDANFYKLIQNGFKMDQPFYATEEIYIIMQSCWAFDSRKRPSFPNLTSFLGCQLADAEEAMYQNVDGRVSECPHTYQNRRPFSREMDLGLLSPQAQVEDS
Nature of the experiment: Kinase competition binding assay, FLT3(D835V). The following applies: Table 1 kinase panel. The method, then:
as §1, §2

Experiment [5] has as its target T5, SIRT-5 (Homo sapiens, UniProt Q9NXA8).
T5 sequence (Q9NXA8 37-310): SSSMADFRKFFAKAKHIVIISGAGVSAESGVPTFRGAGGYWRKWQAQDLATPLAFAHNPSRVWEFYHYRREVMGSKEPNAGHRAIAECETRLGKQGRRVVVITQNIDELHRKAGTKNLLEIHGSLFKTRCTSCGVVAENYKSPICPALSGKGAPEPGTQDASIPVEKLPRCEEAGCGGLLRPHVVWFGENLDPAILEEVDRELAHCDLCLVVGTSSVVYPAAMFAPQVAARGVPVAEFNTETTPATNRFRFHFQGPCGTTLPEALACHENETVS
Nature of the experiment: Inhibition of sirtuins, SIRT-5. Particulars: Table 3 SIRT. Format: biochemical. From the text: Inhibition of Sirtuins, Matrix Metalloproteinase, Bromodomains was Also Confirmed Using Standard Protocols and the Results are Present in Table 2.

The target of experiment [6] is T6, c-Kit(Y823D) (Homo sapiens, UniProt P10721, Y823D).
T6 construct: made in house
Nature of the experiment: Kinase competition binding assay, c-Kit(Y823D). Particulars: Table 1 kinase panel. The method, then:
as §1, §2

Experiment [7] has as its target T7, FLT4(VEGFR3) (Homo sapiens, UniProt P35916).
T7 construct: made in house
In words: Kinase competition binding assay, FLT4(VEGFR3). Particulars: Table 1 kinase panel. As for the experimental part: as §1, §2

Experiment [8] concerns the target T8, c-Kit(D820Y) (Homo sapiens, UniProt P10721, D820Y).
T8 construct: made in house
Nature of the experiment: Kinase competition binding assay, c-Kit(D820Y). Particulars: Table 1 kinase panel. As for the experimental part: as §1, §2

For experiment [9], the target named is T9, DYRK1/DYRK1A (Homo sapiens, UniProt Q13627).
T9 construct: made in house
In words: Kinase competition binding assay, DYRK1/DYRK1A. The following applies: Table 1 kinase panel. The method, then:
as §1, §2

This passage reports IC50 results from patent US20180353462A1, “[…] AGENTS […] FLAVONOID DERIVATIVES TARGETING KINASES, SIRTUINS AND ONCOGENIC AGENTS FOR THE TREATMENT OF CANCERS” (priority 2015, published 2018).

As usually defined, the IC50 is the concentration needed to halve the response being measured. Lower therefore signals greater potency in that assay.

T8 sequence (P10721 26-976 D820Y): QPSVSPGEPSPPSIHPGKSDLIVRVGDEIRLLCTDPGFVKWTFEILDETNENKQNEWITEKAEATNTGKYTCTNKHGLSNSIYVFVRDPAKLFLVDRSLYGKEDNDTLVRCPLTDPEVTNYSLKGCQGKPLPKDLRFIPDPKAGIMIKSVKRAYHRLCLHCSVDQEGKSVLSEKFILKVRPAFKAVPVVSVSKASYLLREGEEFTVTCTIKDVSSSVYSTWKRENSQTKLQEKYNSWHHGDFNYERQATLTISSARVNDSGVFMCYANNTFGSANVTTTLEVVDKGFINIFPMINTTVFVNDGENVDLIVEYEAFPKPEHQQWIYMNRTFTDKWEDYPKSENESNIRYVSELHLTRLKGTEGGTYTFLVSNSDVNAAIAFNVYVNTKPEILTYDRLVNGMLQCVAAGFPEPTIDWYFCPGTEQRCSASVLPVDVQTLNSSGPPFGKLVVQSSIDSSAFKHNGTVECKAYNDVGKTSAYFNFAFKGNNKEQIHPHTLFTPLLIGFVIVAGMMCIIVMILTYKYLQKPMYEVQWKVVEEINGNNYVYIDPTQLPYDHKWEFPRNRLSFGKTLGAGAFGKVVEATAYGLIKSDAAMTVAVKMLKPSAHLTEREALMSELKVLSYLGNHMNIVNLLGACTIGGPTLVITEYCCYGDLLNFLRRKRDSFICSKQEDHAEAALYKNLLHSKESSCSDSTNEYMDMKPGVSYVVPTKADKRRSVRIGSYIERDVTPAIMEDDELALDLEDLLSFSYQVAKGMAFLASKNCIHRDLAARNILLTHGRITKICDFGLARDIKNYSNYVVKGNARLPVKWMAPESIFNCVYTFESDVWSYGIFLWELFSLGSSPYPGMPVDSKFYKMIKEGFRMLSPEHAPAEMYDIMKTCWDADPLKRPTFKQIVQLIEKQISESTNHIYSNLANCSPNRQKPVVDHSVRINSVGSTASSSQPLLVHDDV
T1 sequence (P07333 20-972): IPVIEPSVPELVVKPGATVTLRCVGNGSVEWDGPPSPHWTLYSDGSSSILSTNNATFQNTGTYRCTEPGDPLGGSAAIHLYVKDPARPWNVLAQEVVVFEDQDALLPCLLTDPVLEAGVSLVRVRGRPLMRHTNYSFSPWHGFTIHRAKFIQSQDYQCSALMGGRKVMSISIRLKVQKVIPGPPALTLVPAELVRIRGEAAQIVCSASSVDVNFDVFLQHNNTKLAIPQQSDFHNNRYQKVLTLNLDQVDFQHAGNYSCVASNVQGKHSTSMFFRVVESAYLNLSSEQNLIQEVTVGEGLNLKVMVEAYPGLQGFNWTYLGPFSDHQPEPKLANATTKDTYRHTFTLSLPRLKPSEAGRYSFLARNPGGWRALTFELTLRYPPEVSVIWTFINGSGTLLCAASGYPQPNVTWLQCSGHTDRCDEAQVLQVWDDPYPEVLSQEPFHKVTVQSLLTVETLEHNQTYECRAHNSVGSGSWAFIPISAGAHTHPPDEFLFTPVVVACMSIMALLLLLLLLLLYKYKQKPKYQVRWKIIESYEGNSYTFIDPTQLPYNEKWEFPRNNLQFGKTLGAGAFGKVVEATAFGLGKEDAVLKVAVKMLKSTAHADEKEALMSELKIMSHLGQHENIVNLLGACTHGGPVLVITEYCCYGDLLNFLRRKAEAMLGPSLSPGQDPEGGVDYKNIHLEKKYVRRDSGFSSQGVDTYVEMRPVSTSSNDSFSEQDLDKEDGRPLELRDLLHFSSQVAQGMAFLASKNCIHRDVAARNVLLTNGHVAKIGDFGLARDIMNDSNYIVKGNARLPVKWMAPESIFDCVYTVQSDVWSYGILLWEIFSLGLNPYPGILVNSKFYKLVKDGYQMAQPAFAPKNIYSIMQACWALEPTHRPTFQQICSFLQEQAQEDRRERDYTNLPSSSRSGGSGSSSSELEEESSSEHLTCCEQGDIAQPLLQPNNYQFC
T6 sequence (P10721 26-976 Y823D): as the sequence (P10721 26-976 D820Y) above, with Y795D, Y798D counted along it
T2 sequence (P10721 26-976 L576P): as the sequence (P10721 26-976 D820Y) above, with L551P, Y795D counted along it
T7 sequence (P35916 25-1363): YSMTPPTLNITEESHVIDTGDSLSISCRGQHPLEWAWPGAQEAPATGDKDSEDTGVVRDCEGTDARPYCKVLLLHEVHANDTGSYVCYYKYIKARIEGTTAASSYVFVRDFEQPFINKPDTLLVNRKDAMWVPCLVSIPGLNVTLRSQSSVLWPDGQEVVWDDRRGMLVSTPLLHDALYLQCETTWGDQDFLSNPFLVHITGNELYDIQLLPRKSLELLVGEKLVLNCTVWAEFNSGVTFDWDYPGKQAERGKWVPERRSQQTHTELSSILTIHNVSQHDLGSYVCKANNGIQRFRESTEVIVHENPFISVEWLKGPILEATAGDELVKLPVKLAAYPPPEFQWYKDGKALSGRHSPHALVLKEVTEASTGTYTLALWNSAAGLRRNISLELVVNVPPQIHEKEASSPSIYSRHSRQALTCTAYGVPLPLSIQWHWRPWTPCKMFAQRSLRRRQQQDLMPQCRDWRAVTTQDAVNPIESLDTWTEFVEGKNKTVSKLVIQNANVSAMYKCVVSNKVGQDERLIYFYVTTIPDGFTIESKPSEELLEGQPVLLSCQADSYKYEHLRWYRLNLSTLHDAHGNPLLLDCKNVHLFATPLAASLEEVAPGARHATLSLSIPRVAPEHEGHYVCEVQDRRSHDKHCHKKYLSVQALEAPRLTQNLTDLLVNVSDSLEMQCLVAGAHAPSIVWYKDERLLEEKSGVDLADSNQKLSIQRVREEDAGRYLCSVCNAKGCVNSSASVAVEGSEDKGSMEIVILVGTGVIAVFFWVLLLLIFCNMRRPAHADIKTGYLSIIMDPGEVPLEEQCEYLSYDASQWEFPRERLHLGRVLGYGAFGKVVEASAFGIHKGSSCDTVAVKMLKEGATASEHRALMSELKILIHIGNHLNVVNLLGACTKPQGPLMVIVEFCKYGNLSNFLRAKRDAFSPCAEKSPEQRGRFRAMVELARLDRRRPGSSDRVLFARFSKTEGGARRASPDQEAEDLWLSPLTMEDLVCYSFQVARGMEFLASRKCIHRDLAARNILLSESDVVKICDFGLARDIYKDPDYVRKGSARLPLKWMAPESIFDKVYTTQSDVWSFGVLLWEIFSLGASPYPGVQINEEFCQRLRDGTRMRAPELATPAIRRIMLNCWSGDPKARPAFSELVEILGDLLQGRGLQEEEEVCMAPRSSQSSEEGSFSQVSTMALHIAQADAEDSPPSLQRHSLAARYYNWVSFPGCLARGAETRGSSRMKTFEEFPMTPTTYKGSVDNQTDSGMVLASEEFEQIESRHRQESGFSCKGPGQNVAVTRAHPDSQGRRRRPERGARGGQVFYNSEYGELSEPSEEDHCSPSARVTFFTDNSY

Consider `COc1cc(-c2cc(=O)c3c(O)c(C/C=C(\C)CCC=C(C)C)c(O)cc3o2)ccc1O` [FBL-03A], for which the IC50 was 1500 nM in experiment [1]; 180 nM in experiment [2]; more than 20000 nM in [3]; 220 nM in [4]; 523 µM in [5]; more than 20000 nM in [6]. Moreover, the IC50 in [7] is 330 nM; in experiment [8], more than 20000 nM; in experiment [9], more than 20000 nM.

In the case of `COc1cc(-c2cc(=O)c3c(O)c(CC=C(C)C)c(O)cc3o2)ccc1O` [FBL-03B], the half-maximal inhibitory concentration (IC50) in experiment [1] was 199 nM; in [2], less than 1000 nM; in experiment [3] it was less than 1000 nM; in experiment [4], less than 1000 nM; in experiment [5], 104 µM; in experiment [6], 244 nM. The IC50 in experiment [7] was 9.3 nM; in experiment [8], 1280 nM; in [9], less than 1000 nM.

Take `COc1cc(-c2cc(=O)c3c(O)cc(O)c(C/C=C(\C)CCC=C(C)C)c3o2)ccc1O` [FBL-03C]: the 50% inhibitory concentration (IC50) in [1] was 1200 nM; in experiment [2], more than 1000 nM; in experiment [3], 980 nM; in [4] it was 190 nM; in [5] it was 132 µM; in experiment [6] it was more than 20000 nM. Also, the IC50 in experiment [7] is more than 20000 nM; in experiment [8] it was more than 20000 nM; in [9] it was 620 nM.

Turning to `COc1ccc(-c2cc(=O)c3c(O)c(C/C=C(\C)CCC=C(C)C)c(O)cc3o2)cc1OC` [FBL-03D], the 50% inhibitory concentration (IC50) in [1], in experiment [2], in experiment [3], in [4], in experiment [6] and in experiment [7] was more than 30000 nM in each case. Further, the IC50 in experiment [8] and in [9] was more than 30000 nM in each case.

As for `COc1cc(-c2cc(=O)c3c(O)cc(O)c(CC=C(C)C)c3o2)ccc1O` [FBL-03G], the IC50 is 4 nM in experiment [1]; less than 1000 nM in experiment [2]; more than 10000 nM in experiment [3]; less than 1000 nM in [4]; 974 µM in experiment [5]; 84 nM in experiment [6]. The results for the IC50 in [7], in experiment [8] and in experiment [9] were 4220 nM, 113 nM and 36 nM, respectively.
